According to patent US7776882B2, “2-amino-3,4-dihydro-quinoline derivatives useful as inhibitors of β-secretase (BACE)” (priority 2006, dated 2010):
“And” between values parts separate entries of the source, which are not always exact repeats. Equal values may be shown once. Read-outs that look alike come from different tables or passages of the source.

Key:
Format in all cases: biochemical
β-secretase (BACE) [1] = target: T1, β-secretase (BACE) (Homo sapiens, UniProt P56817); assay: In Vitro BACE Assay, Ki (Example 11); settings: FS1 substrate 50 μM, Km 24 μM
T1 construct: purchased Panvera
T1 sequence (P56817 46-501): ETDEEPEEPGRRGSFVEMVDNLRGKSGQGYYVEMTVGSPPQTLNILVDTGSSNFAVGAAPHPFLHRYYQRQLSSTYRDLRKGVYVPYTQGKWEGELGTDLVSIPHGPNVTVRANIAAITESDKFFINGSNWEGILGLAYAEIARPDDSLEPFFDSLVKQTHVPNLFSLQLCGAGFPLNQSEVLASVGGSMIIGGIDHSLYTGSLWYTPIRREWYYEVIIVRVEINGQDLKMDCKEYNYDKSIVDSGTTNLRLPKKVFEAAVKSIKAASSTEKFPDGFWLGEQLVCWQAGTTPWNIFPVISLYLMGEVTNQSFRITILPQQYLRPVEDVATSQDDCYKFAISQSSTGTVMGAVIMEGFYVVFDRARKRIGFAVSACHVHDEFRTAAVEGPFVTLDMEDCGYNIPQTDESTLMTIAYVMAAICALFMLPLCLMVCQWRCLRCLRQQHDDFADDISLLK
Procedure: The following reagents were used in this assay: sodium acetate, PEG8000 (Sigma), DMSO, HEPES, FS1 substrate [R(AedensE)[…]-(DabcylK)R], β-secretase (BACE) (Panvera), and 96-well plate (HE microplate, Molecular Devices).
(§1) The following assay buffers were prepared and used in this assay: (1) enzyme assay buffer (0.05 M sodium acetate, pH5, 0.1% PEG8000 (w/v)), (2) substrate assay buffer (0.05 M sodium acetate, pH5), and (3) compound vehicle (30% DMSO in 50 mM HEPES, pH 7.4).
(§2) The FS1-substrate stock solution was prepared in DMSO as a 10 mg/mL solution. The FS1-substrate working solution was prepared by diluting the 10 mg/mL stock solution with substrate assay buffer to a final concentration of 300 μg/mL. The β-secretase (BACE) working solution was prepared by diluting a 0.83 mg/mL BACE stock solution with enzyme assay buffer to a final concentration of 4 μg/mL.
Test compounds were dissolved in DMSO at 10 mM.
(§3) The procedure for this assay was as follows: 15 μL of BACE working solution was pipetted into each well of a 96-well plate. To each well was then pipetted 2 μL of test compound at the selected concentration. Test compound and BACE were then mixed with a pipettor and incubated for 20 min at room temperature. To each well was then added 10 μL of the FS1 substrate working solution. The fluorescence for each well was then measured on a Polarstar fluorometer (Ex 390 nm/Em 520 nm) for 20 min at room temperature, reading fluorescence at 1 min intervals.
as §3, with “for the positive control” for “for this assay”, “well to be used as” for “well of”, “a positive control.” for “a 96-well plate.”, “of vehicle. Vehicle” for “of test compound at the selected concentration. Test compound”, “fluorescence” for “fluorescence for each well”
For test compounds, Ki inhibition was determined as follows: For each compound concentration and positive control, rate of cleavage of substrate (Vi, where i=compound concentration in μM) was determined as Δ Fluorescence/Δ time (min). Cleavage rates (Vi) were plotted as a function of inhibitor concentration in μM [I]. The Ki was then determined by fitting the following equation to the graph of [I] vs Vi Y=aVmax/(50+24*(1+X/Ki)),

β-secretase (BACE) [2] = target: T1, β-secretase (BACE); assay: In Vitro BACE FS1 % Inhibition Assay (Example 10); settings: FS1 substrate, values below about 25% (including negative) within noise; for % Inhibition (Example 10) @ 0.3 μM / inhibition at 0.3 µM: 0.3 μM compound; for % Inhibition (Example 10) @ 1 μM / inhibition at 1 µM: 1 μM compound; for % Inhibition (Example 10) @ 3 μM / inhibition at 3 µM: 3 μM compound
Procedure: as §1, §2
Test compounds were dissolved in DMSO to 10 mM. Compounds were further diluted in vehicle to various concentrations in the range of 405 μM to 4.05 μM (13.5×final compound concentration in screening plate).
The screening procedure for this assay was as follows: 15 μL of BACE working solution was pipetted into each well of a 96-well plate. To each well was then pipetted 2 μL of test compound at the selected concentration. Test compound and BACE were then mixed with a pipettor and incubated for 20 min at room temperature. To each well was then added 10 μL of the FS1 substrate working solution. The plates were then incubated for 1 hour at room temperature. The fluorescence for each well was then measured on an LJL analyst (Ex 360 nm/Em 530 nm).
The procedure for the blank (negative control) was as follows. 15 μL of assay buffer was pipetted into each well to be used as a blank control. To each well was then added 2 μL of vehicle and 10 μL of FS1-substrate working solution. The plates were then incubated for 1 hour at room temperature. The fluorescence was measured on an LJL analyst (Ex 360 nm/Em 530 nm).
The procedure for the positive control was as follows: 15 μL of BACE working solution was pipetted into each well to be used as a positive control. To each well was then pipetted 2 μL of vehicle. Vehicle and BACE were then mixed with a pipettor and incubated for 20 min at room temperature. To each well was then added 10 μL of the FS1 substrate working solution. The plates were then incubated for 1 hour at room temperature. The fluorescence (Fl) was then measured on an LJL analyst (Ex 360 nm/Em 530 nm).
For test compounds, % inhibition was determined at each concentration as follows: […]

human BACE-1 = target: T2, human BACE-1 (Homo sapiens, UniProt P56817); assay: In Vitro BACE Assay run by CEREP (Example 14); settings: recombinant enzyme, 60 min at 37° C., pH 4.5; for inhibition at 1 µM / % Inhibition 1 μM: 1 μM compound
T2 construct: purchased CEREP (contract assay) 761-B
T2 sequence (P56817 46-501): as above
Procedure: This assay was run by CEREP (Catalog Ref. 761-B, Referred to SOP No. 1C131; ERMOLIEFF, J., LOY, J. A., KOELSCH, G. and TANG, J., Proteolytic activation of recombinant pro-memapsin 2 (pro-BACE) studied with new fluorogenic substrates, Biochemistry, (2000) Vol. 39, p. 12450).
More specifically the assay, run at 50 μL in a 96 well plate, evaluated the effect of test compound on the activity of the human BACE-1 quantified by measuring the formation of Mca-S-E-V-N-L-NH2 from Mca-S-E-V-N-L-D-A-E-F-R-K(Dnp)-R-R-NH2, using a recombinant enzyme.
The test compound, reference compound or water (control) was added to a buffer containing 0.09 M sodium acetate (pH 4.5) and 0.25 μg BACE-1. Compound interference with the fluorimetric detection method due to autofluorescence was then checked by measurements at the wavelengths defined to evaluate the enzyme activity. Thereafter, the reaction was initiated by adding 7.5 μM of the substrate Mca-S-E-V-N-L-D-A-E-F-R-K(Dnp)-R-R-NH2 and the mixture was incubated for 60 min at 37° C. For control basal measurement, the substrate was omitted from the reaction mixture. Immediately after the incubation, the fluorescence intensity emitted by the reaction product Mca-S-E-V-N-L-NH2 was measured at λex=320 nm and λem=405 nm using a microplate reader (Ultra, Tecan). The standard inhibitory reference compound was OM99-2, which was tested in each experiment at several concentrations to obtain an inhibition curve from which its IC50 value was calculated.

## Nc1nc2ccc(Oc3ccccc3)cc2cc1CCC(=O)NC12CC3CC(CC(C3)C1)C2 [compound 2]
β-secretase (BACE) [1]; read-out: Ki (μM) (Example 11)
  Ki: 0.23 µM
β-secretase (BACE) [2]
  % Inhibition (Example 10) @ 0.3 μM: 45%
  % Inhibition (Example 10) @ 1 μM: 78%
  % Inhibition (Example 10) @ 3 μM: 107%

## CC1CCCC(NC(=O)CCc2cc3cc(Oc4ccccc4)ccc3nc2N)C1 (centres unmarked) [compound 3]
β-secretase (BACE) [1]; Ki (μM) (Example 11)
  Ki: 0.49 µM
β-secretase (BACE) [2]
  inhibition at 0.3 µM: 58%
  inhibition at 1 µM: 89%
  inhibition at 3 µM: 115%

## CC(C)=CCCC(C)=CCNC(=O)CCc1cc2cc(Oc3ccccc3)ccc2nc1N [compound 13]
β-secretase (BACE) [1]; Ki (μM) (Example 11)
  Ki: 0.64 µM
β-secretase (BACE) [2]
  inhibition at 0.3 µM: 2%
  inhibition at 1 µM: 42%
  inhibition at 3 µM: 88%

## Nc1nc2ccc(Oc3ccccc3)cc2cc1C(CCC(=O)NC12CC3CC(CC(C3)C1)C2)C1CCCCC1 (centres unmarked) [compound 15]
β-secretase (BACE) [1]; read-out: Ki (μM) (Example 11)
  Ki: 0.28 µM
β-secretase (BACE) [2]
  % Inhibition (Example 10) @ 0.3 μM: 43%
  % Inhibition (Example 10) @ 1 μM: 58%
  % Inhibition (Example 10) @ 3 μM: 78%

## CN(C(=O)CCC(c1cc2cc(Oc3ccccc3)ccc2nc1N)C1CCCCC1)C1CCCCC1 (centres unmarked) [compound 16]
β-secretase (BACE) [1]; Ki (μM) (Example 11)
  Ki: 0.44 µM
Human BACE-1; 0.3 μM compound
  inhibition at 0.3 µM: 15%
Human BACE-1
  inhibition at 1 µM: 46%
  IC50: 700 nM
β-secretase (BACE) [2]
  inhibition at 0.3 µM: 29%
  inhibition at 1 µM: 27%
  inhibition at 3 µM: 78%

## CN(C(=O)CCC(c1cc2cc(Oc3ccccc3)ccc2nc1N)C1CCOCC1)C1CCCCC1 (centres unmarked) [compound 23]
β-secretase (BACE) [1]; Ki (μM) (Example 11)
  Ki: 0.12 µM and 0.31 µM
Human BACE-1
  inhibition at 1 µM: 78%
  IC50: 420 nM
β-secretase (BACE) [2]; 0.3 µM
  % Inhibition (Example 10) @ 0.3 μM: 34% and 64%
β-secretase (BACE) [2]
  inhibition at 1 µM: 88%
  inhibition at 3 µM: 127%
β-secretase (BACE) [2]; 1 µM
  % Inhibition (Example 10) @ 1 μM: 93%
β-secretase (BACE) [2]; 3 µM
  % Inhibition (Example 10) @ 3 μM: 125%

## Nc1nc2ccc(Oc3ccccc3)cc2cc1C(CCC(=O)NC12CC3CC(CC(C3)C1)C2)C1CCOCC1 (centres unmarked) [compound 24]
β-secretase (BACE) [1]; read-out: Ki (μM) (Example 11)
  Ki: 0.066 µM
β-secretase (BACE) [2]
  % Inhibition (Example 10) @ 0.3 μM: 56%
  % Inhibition (Example 10) @ 1 μM: 103%
  % Inhibition (Example 10) @ 3 μM: 132%

## CN(C(=O)CC[C@H](c1cc2cc(Oc3ccccc3)ccc2nc1N)C1CCOCC1)C1CCCCC1 [compound 25]
β-secretase (BACE) [1]; Ki (μM) (Example 11)
  Ki: 0.16 µM
β-secretase (BACE) [2]
  inhibition at 0.3 µM: 83%
  inhibition at 1 µM: 114%
  inhibition at 3 µM: 126%

## Nc1nc2ccc(Oc3ccccc3)cc2cc1C(CCC(=O)N(Cc1ccccn1)C1CCCCC1)C1CCOCC1 (centres unmarked) [compound 60]
Human BACE-1
  inhibition at 1 µM: 83%
  IC50: 320 nM

## CN(CCC(c1cc2cc(Oc3ccccc3)ccc2nc1N)C1CCCCC1)C1CCCCC1 (centres unmarked) [compound 61]
Human BACE-1
  % Inhibition 1 μM: 15%

## Nc1nc2ccc(Oc3ccccc3)cc2cc1C(CCC(=O)N(CN1CCCC1)C1CCCCC1)C1CCOCC1 (centres unmarked) [compound 64]
Human BACE-1
  inhibition at 1 µM: 83%
  IC50: 190 nM

## Nc1nc2ccc(Oc3ccccc3)cc2cc1C(CCC(=O)N(CCN1CCOCC1)C1CCCCC1)C1CCOCC1 (centres unmarked) [compound 65]
Human BACE-1
  inhibition at 1 µM: 69%
  IC50: 850 nM

## CC(C)(C)OCCN(C(=O)CCC(c1cc2cc(Oc3ccccc3)ccc2nc1N)C1CCOCC1)C1CCCCC1 (centres unmarked) [compound 66]
Human BACE-1
  inhibition at 1 µM: 86%
  IC50: 470 nM

## Nc1nc2ccc(Oc3ccccc3)cc2cc1C(CCC(=O)N(CC1CC1)C1CCCCC1)C1CCOCC1 (centres unmarked) [compound 67]
Human BACE-1
  inhibition at 1 µM: 90%
  IC50: 410 nM

## Nc1nc2ccc(Oc3ccccc3)cc2cc1C(CCC(=O)N(CCO)CC1CC1)C1CCOCC1 (centres unmarked) [compound 68]
Human BACE-1
  inhibition at 1 µM: 41%
  IC50: 1500 nM

## CC(C)(C)CN(Cc1ccccn1)C(=O)CCC(c1cc2cc(Oc3ccccc3)ccc2nc1N)C1CCOCC1 (centres unmarked) [compound 69]
Human BACE-1
  inhibition at 1 µM: 69%
  IC50: 670 nM

## Cn1ccnc1CN(CCC(C)(C)C)C(=O)CCC(c1cc2cc(Oc3ccccc3)ccc2nc1N)C1CCCCC1 (centres unmarked) [compound 70]
Human BACE-1; 1 µM
  % Inhibition 1 μM: 10%

## Cn1ccnc1CN(CCC(C)(C)C)C(=O)CCC(c1cc2cc(Oc3ccccc3)ccc2nc1N)C1CCCCC1 (centres unmarked) [compound 71]
Human BACE-1; 1 µM
  % Inhibition 1 μM: 73%

## Cn1ccnc1CN(CCC(C)(C)C)C(=O)CCC(c1cc2cc(Oc3ccccc3)ccc2nc1N)C1CCCCC1 (centres unmarked) [compound 72]
Human BACE-1; 1 µM
  % Inhibition 1 μM: 81%

## C=CCCC(c1cc2cc(Oc3ccccc3)ccc2nc1N)C1CCCCC1 (centres unmarked) [compound 509]
Human BACE-1; 0.3 μM compound
  % Inhibition 0.3 μM: 11%
Human BACE-1
  % Inhibition 1 μM: −3%
